“Also recorded” adds a separate entry of the source. Read-outs that look alike come from different tables or passages of the source.
Experiments:
Thompson Seedless Grapes [1] = test: Percentage bud break on fruiting canes, vineyard trial; format: in vivo, Vitis; conditions: for bud break on fruiting canes, efficacy: compared to the untreated check
Text: (§1) A portion of an established commercial vineyard was used for the study. The HBR (FIG. 1) treatments were replicated down a single row and arranged in sets of 3 vines per plot. Plots were flagged with colored ribbon to identify the treatments and there were 4 replicates each. Spray applications were made when the vines were still dormant on Day 0 (Feb. 12, 2019) or during the delayed dormant period, when buds were swollen or at eraser stage, on Day 24 (Mar. 8, 2019)). […] Crop injury was rated using a scale of 0-10, where 0=no injury and 10=100% of tree injured. Percentage bud break was evaluated by counting numbers of shoots from 30 nodes on fruiting canes from trunk to trunk and 5 renewal spurs were chosen non-systematically on Day 34 (Mar. 18, 2019) and Day 41 (Mar. 25, 2019).
Statistical differences were highly significant and variability in the data was low. Having waited until approximately 55 chill portions (a quantification of the aggregate low temperature exposure needed for a crop to break dormancy), the dormant sprays allowed both the Hydrogen Cyanamide (Dormex®) treated and untreated vines to accumulate the maximum chilling. […] Uniformity was enhanced by both Dormex® and 5 ppm ai HBR applied as a dormant spray. Variability was lowest in the untreated check by 41 DAA even though bud break had not reached 90%. It is not unusual for bud break to exceed 100% because secondary shoots were stimulated by the effects of overcoming apical dominance by both effective rest breaking and the accumulation of maximum chilling by untreated vines. FIGS. 6 and 7.

Thompson Seedless Grapes [2] = test: Percentage bud break on renewal spurs, vineyard trial; format: in vivo, Vitis; conditions: by 41 DAA
Text: as §1
However, the results were statistically significant between the rest breaking treatments as a group compared to the untreated check at both evaluation intervals. […] It appeared that spur bud break had peaked by 34 DAA because by 41 DAA, percentages were mostly the same. Only the untreated check continued to break buds, which remained approximately 15% lower than the rest breaking treatments as a group.

Thompson Seedless Grapes [3] = conditions: grapes and other fruit crops; cited from earlier work
laboratory animals = conditions: cited from earlier work; for toxicity: in vivo
nearby crops = conditions: in vivo; cited from earlier work
[4] = label for 0.1% HBR; SDS from Alzchem; cited from earlier work
vines = conditions: cited from earlier work
Thompson Seedless Grapes [5] = test: Crop injury / phytotoxicity observation; set-up: species or system Vitis; conditions: in vivo
Text: as §1

Thompson Seedless Grapes [6] = test: Fruit growth uniformity; set-up: species or system Vitis; conditions: in vivo
Thompson Seedless Grapes [7] = test: Number of shoots (overcoming apical dominance); format: in vivo, Vitis
Text: as §1

N#CN [Dormex, Hydrogen Cyanamide, reference compound]
bud break uniformity (Thompson Seedless Grapes [1]; Dormex standard rate, dormant spray): enhanced | amount needed to approach the effect of HBR, times (Thompson Seedless Grapes [1]; in vivo): approximately 20,000 times | spur bud break (Thompson Seedless Grapes [2]): < 100% | phytotoxicity (Thompson Seedless Grapes [3]): can be phytotoxic | adverse effects in laboratory animals (laboratory animals; California EPA Department of Pesticide Regulation study): causes adverse effects in the liver, thyroid, kidney, ovaries, and testes | toxicity (laboratory animals): reported toxicity due to acute exposure; also recorded: can be acutely toxic when misused | effect on nearby crops (nearby crops): can damage nearby crops | biodegradability [4]: not readily biodegradable | lowering of the fruitability of vines (vines; repeated use over the years): 20-30 % per year

CC[C@@H](C(C)C)C(O)C(O)[C@@H](C)[C@H]1CC[C@H]2[C@@H]3COC(=O)[C@H]4C[C@H](O)[C@H](O)C[C@]4(C)[C@H]3CC[C@]12C (stereo in doubt) [HBR, homobrassinolide]
bud break on fruiting canes, efficacy (Thompson Seedless Grapes [1]; 1 ppm ai applied at early bud swell): as effective as the standard rate of Dormex | bud break on fruiting canes, efficacy (Thompson Seedless Grapes [1]; 2 ppm ai applied at early bud swell): as effective as the standard rate of Dormex | bud break uniformity (Thompson Seedless Grapes [1]; 5 ppm ai applied as a dormant spray): enhanced | bud break on fruiting canes, effects (Thompson Seedless Grapes [1]; 5 ppm applied delayed dormant, 34 DAA): statistically equivalent to the untreated check | active concentration range (Thompson Seedless Grapes [1]; in vivo): nano molar to pico molar range | spur bud break, effects (Thompson Seedless Grapes [2]; 2 ppm ai applied at bud swell): equivalent to the untreated check | toxicity (laboratory animals): non-toxic mode of action | crop injury (Thompson Seedless Grapes [5]): without crop injury | phytotoxicity (Thompson Seedless Grapes [5]): non-phytotoxic | fruit growth uniformity (Thompson Seedless Grapes [6]): enhance fruit growth uniformity | shoots compared to control (Thompson Seedless Grapes [7]; 1 ppm ai): increased shoots compared to control | shoots compared to control (Thompson Seedless Grapes [7]; 2 ppm ai): increased shoots compared to control | shoots compared to control (Thompson Seedless Grapes [7]; 5 ppm ai): increased shoots compared to control | shoots compared to the standard treatment (Thompson Seedless Grapes [7]; both 1 ppm ai and 1 ppm ai treatments (so in the source)): comparable to the Hydrogen Cyanamide standard treatment | number of shoots (Thompson Seedless Grapes [7]; either dormant or delayed dormant spray applications): increased number of shoots | effect on nearby crops (nearby crops): no evidence that HBR has harmful effects on nearby crops | lowering of the fruitability of vines (vines; in vivo): no such effect
